“Also recorded” adds a separate entry of the source.
Legend:
Type in all cases: in vivo, Long Evans rat
brain gene expression = test: ic-STZ ± PPAR agonist: real time quantitative RT-PCR of temporal lobe, hypothalamus, cerebellum; settings: for APP mRNA relative to control and ic-STZ: cerebella; for ic-STZ associated reductions in IGF-II expression: rat, in vivo; for APP gene expression / Tau gene expression: temporal lobe and hypothalamus
Description: On the same day, sub-sets of the ic-STZ group were given a single intra-peritoneal injection of vehicle (saline), or a PPAR-α (GW7647; 25 ug/Kg), PPAR-δ (L-165,041; 2 μg/Kg), or PPAR-γ (F-L-Leu; 20 μg/Kg) activator (CalBiochem, Carlsbad, Calif.). […] In addition, at 4 weeks of age, memory and learning were evaluated using a Morris Water Maze (R. W. Hickey, M. Akino, S. Strausbaugh, G. M. De Courten-Myers. Use of the Morris water maze and acoustic startle chamber to evaluate neurologic injury after asphyxial arrest in rats. Pediatr Res 39(1) (1996), 77-84). The procedures and use of rats in these experiments were approved by the Lifespan-Rhode Island Hospital IACUC committee.
Real Time Quantitative RT-PCR: Total RNA isolated from the temporal lobe, hypothalamus, and cerebellum was reverse transcribed using the AMV First Strand cDNA synthesis kit (Roche Diagnostics Corporation, Indianapolis, Ind.) and random oligodeoxynucleotide primers. […] In addition, pathological shifts in cell type associated with ic-STZ-mediated neurodegeneration were detected by measuring the mRNA levels of Hu (neurons), GFAP (astrocytes), myelin-associated glycloprotein (MAG-1; oligodendroglia), and allograft inflammatory factor-1 (AIF-1; microglia) (E. J. Rivera, A. Goldin, N. Fulmer, R. Tavares, J. R. Wands, S. M. de la Monte, J. Alzheimers Dis 8(3) (2005), 247-68). Ribosomal 18S RNA levels measured in parallel reactions were used to calculate the relative abundance of each mRNA transcript (J. E. Yeon, S. Califano, J. Xu, J. R. Wands, S. M. De La Monte. Potential role of PTEN phosphatase in ethanol-impaired survival signaling in the liver. Hepatology 38(3) (2003), 703-14, J. Xu, J. Eun Yeon, H. Chang, G. Tison, G. Jun Chen, J. R. Wands, et al. Ethanol impairs insulin-stimulated neuronal survival in the developing brain: Role of PTEN phosphatase. J Biol Chem (2003)). The gene expression levels were measured by real time quantitative RT-PCR Relative mRNA abundance was determined from the ng ratios of specific mRNA to 18S (J. E. Yeon, S. Califano, J. Xu, J. R. Wands, S. M. De La Monte. Potential role of PTEN phosphatase in ethanol-impaired survival signaling in the liver. Hepatology 38(3) (2003), 703-14, J. Xu, J. Eun Yeon, H. Chang, G. Tison, G. Jun Chen, J. R. Wands, et al. Ethanol impairs insulin-stimulated neuronal survival in the developing brain: Role of PTEN phosphatase. J Biol Chem (2003)).

[1] = system: GFAP, HNE, 8-OHdG, ChAT immunoreactivity; test: ic-STZ ± PPAR agonist: immunohistochemical staining of brain; settings: for ChAT immunoreactivity: basal forebrain region; for 8-OHdG immunoreactivity / HNE immunoreactivity / GFAP immunoreactivity: temporal cortex
Description: (§1) Histopathological and Immunohistochemical Staining Studies: Whole fresh brains were immersion fixed in Histofix (Amresco, Solon, Ohio) and then sectioned in the coronal plane along standardized landmarks, embedded in paraffin, and processed for histopathological studies. In addition, fresh brains were sectioned in the coronal plane to obtain a ˜3 mm thick slice that flanked the infundibulum. The 3-mm brain slice was snap frozen between two slabs of dry ice, and then stored at −80° C. for later RNA and protein studies. The residual tissue was immersion fixed and processed for histopathological studies. […] As negative controls for the immunostaining reactions, either the primary antibody was omitted or non-relevant monoclonal antibody to Hepatitis B virus was used in place of the relevant antibody. Immunoreactivity was detected using the avidin-biotin horseradish peroxidase complex method (S. M. de la Monte, T. Luong, T. R. Neely, D. Robinson, J. R. Wands. Mitochondrial DNA damage as a mechanism of cell loss in Alzheimer's disease. Lab Invest 80(8) (2000), 1323-35). All sections were examined under code.
Increased levels of 8-OHdG and 4-hydroxynonenol (HNE) have been detected in brains with AD (W. R. Markesbery, J. M. Carney. Oxidative alterations in Alzheimer's disease. Brain Pathol 9(1) (1999), 133-46, L. M. Sayre, D. A. Zelasko, P. L. Harris, G. Perry, R. G. Salomon, M. A. Smith. 4-Hydroxynonenal-derived advanced lipid peroxidation end products are increased in Alzheimer's disease. J Neurochem 68(5) (1997), 2092-7). […] In addition, it was of interest to relate indices of oxidative stress to GFAP immunoreactivity, which reflects astrocytic responses to tissue injury. Paraffin-embedded histological sections of brain were immunostained to detect GFAP, 8-OHdG or HNE using the ABC method with DAB as the chromogen (brown precipitate) and light hematoxylin as the counterstain.

[2] = system: ic-STZ-induced neurodegeneration; test: ic-STZ ± PPAR agonist: brain histopathology (H&E); settings: for preservation of cerebellar cortical architecture (H&E) / preservation of hippocampi and temporal lobes (H&E): 4 weeks after ic-STZ ± single IP PPAR agonist
Description: In addition, at 4 weeks of age, memory and learning were evaluated using a Morris Water Maze (R. W. Hickey, M. Akino, S. Strausbaugh, G. M. De Courten-Myers. Use of the Morris water maze and acoustic startle chamber to evaluate neurologic injury after asphyxial arrest in rats. Pediatr Res 39(1) (1996), 77-84). The procedures and use of rats in these experiments were approved by the Lifespan-Rhode Island Hospital IACUC committee.
as §1

SMILES	AChE mRNA (brain gene expression; hypothalamus)	NOS 2 mRNA (brain gene expression; temporal lobe)	NOX 1 mRNA (brain gene expression; temporal lobe)	p53 mRNA (brain gene expression; temporal lobe)	ChAT immunoreactivity [1]	preservation of cerebellar cortical architecture (H&E) [2]	preservation of hippocampi and temporal lobes (H&E) [2]	APP mRNA relative to control and ic-STZ (brain gene expression)	AChE mRNA compared with ic-STZ treatment alone (brain gene expression; cerebellum)	AIF-1 (microglia) expression relative to ic-STZ group (brain gene expression; cerebellum)	ChAT expression (brain gene expression; cerebellum)	GFAP (astrocytes) expression relative to ic-STZ group (brain gene expression; cerebellum)	Hu (neurons) expression relative to ic-STZ group (brain gene expression; cerebellum)	IGF-I mRNA relative to control (brain gene expression; cerebellum)	IGF-II receptor mRNA (brain gene expression; cerebellum)	ic-STZ associated reductions in IGF-II expression (brain gene expression)	IGF-I receptor mRNA (brain gene expression; temporal lobe and cerebellum)	APP gene expression (brain gene expression)	8-OHdG immunoreactivity [1]	HNE immunoreactivity [1]	also measured
CN(N=O)C(=O)NC1C(O)OC(CO)C(O)C1O (stereo not shown) [STZ]	significantly increased	significantly increased	significantly increased	significantly increased	markedly reduced																IGF-II receptor expression (brain gene expression; hypothalamus): did not significantly impair; IGF-I mRNA (brain gene expression; hypothalamus and cerebellum): not significantly reduced; IGF-I receptor expression (brain gene expression; hypothalamus and cerebellum): significantly reduced; AChE expression (brain gene expression; temporal lobe): significantly reduced; IGF-I receptor expression (brain gene expression; temporal lobe): did not significantly impair; NOS 3 mRNA (brain gene expression; temporal lobe): significantly increased; ChAT mRNA (brain gene expression; temporal lobe and cerebellum): significantly reduced; IGF-II receptor expression (brain gene expression; temporal lobe and cerebellum): significantly reduced; insulin receptor gene expression (brain gene expression; temporal lobe, hypothalamus, cerebellum): significantly reduced
CC(C)C[C@H](NC(=O)OCC1c2ccccc2-c2ccccc21)C(=O)O [PPAR-γ agonist, F-L-Leu]	significantly increased		significantly reduced		variably increased	ineffective	least effective	significantly higher	significantly reduced	increased	significantly increased	decreased	increased	significantly increased	significantly increased	variably prevented	significantly increased	significantly reduced	conspicuously reduced	moderately reduced	Tau gene expression (brain gene expression): restored Tau gene expression to control levels
CCCc1c(OCCCOc2ccc(OCC(=O)O)cc2)ccc(C(C)=O)c1O [PPAR-δ agonist, L-165,041]	significantly increased	comparable to control	comparable to control	comparable to control	variably increased	moderately effective; also recorded: markedly reduced	most striking therapeutic rescue	significantly higher	significantly reduced	increased	significantly increased	decreased	increased	significantly increased	significantly increased		significantly increased		conspicuously reduced	conspicuously reduced	share of temporal cortex thickness spanned by the horizontal scale bar ([2]; FIG. 25A-E, control 30%): 30%; Hu gene expression (brain gene expression; hypothalamus): significantly increased; Tau gene expression (brain gene expression): restored Tau gene expression to control levels; GFAP immunoreactivity [1]: conspicuously reduced
CC(C)(Sc1ccc(CCN(CCCCC2CCCCC2)C(=O)NC2CCCCC2)cc1)C(=O)O [PPAR-α agonist, GW7647]			significantly reduced		variably increased	moderately effective; also recorded: markedly reduced	less effective than the PPAR-δ agonist				significantly increased					variably prevented		significantly reduced	conspicuously reduced	no clear effect	Hu gene expression (brain gene expression; hypothalamus): significantly increased; MAG-1 gene expression (brain gene expression; hypothalamus): increased; GFAP immunoreactivity [1]: no clear effect

— patent US7833513B2, “Treatment of Alzheimer's Disease” (Rhode Island Hospital, priority 2004, dated 2010)
